# Assays:
# Ramos cells = conditions: disclosed in WO 2024/020517 [00698]; read-out: cellular activity in Ramos cells IC50; cited from earlier work
# [1] = system: SIRPα signalling induced by A549 cells; assay: Assay B: SIRPα signalling assay using A549 cells; format: cell-based; conditions: Homo sapiens, read-out: Inhibition of SIRPα signalling induced by A549 cells: IC50
# Description: Two cell types are independently used: the Raji cell line (lymphoblast-like human cell line derived from B lymphocytes from a Burkitt's lymphoma patient in 1963) and A549 cells (adenocarcinomic human alveolar basal epithelial cells).
# Test compounds were dissolved in 100% DMSO and serially diluted into a white 384-well microtiter cell culture plate (PerkinElmer #60076780 in case of Raji assay; PDL-coated plates Greiner #781945 in case of A549 assay). 5000 Raji cells (ATCC #CC86) or 5000 A549 cells (ATCC #CCL-185) in Assay Complete Cell Plating reagent 30 (DiscoverX 93-0563R30B) were added per well. The assay plate was incubated for 48 h at 37° C., 95% humidity and 5% CO2. 15000 reporter cells (Jurkat PathHunter SIRPαV1, DiscoverX #93-1135C19) were added to each well, and the plate was incubated for 5 h at 37° C., 95% humidity and 5% CO2. Bioassay reagent 1 of the PathHunter Bioassay detection kit (DiscoverX 93-0001) was added to each well of the plate using a multichannel pipette followed by a 15 min incubation at room temperature. Afterwards bioassay reagent 2 was added followed by 60 min incubation at room temperature (incubation in the dark).
# The analysis of the data was performed using the luminescence signal generated by betagalactosidase in the PathHunter reporter cell line. The luminescence measurement was done using a Pherastar Multi-Mode Reader. Dose-response curves & IC50 data were calculated with 4-parameter sigmoidal dose response formula.
# murine hepatocytes = assay: Assay E: Stability in murine hepatocytes; format: in vitro ADME, mouse; conditions: 1 μM
# Description: The metabolic degradation of the test compound is assayed in a murine hepatocyte suspension.
# Murine hepatocytes (typically cryopreserved) are incubated in an appropriate buffer system (e.g. Dulbecco's modified eagle medium plus 3.5 μg glucagon/500 mL, 2.5 mg insulin/500 mL and 3.75 mg/500 mL hydrocortison) containing 5% species serum.
# Following a (typically) 30 min preincubation in an incubator (37° C., 10% CO2) 5 μl of test compound solution (80 μM; from 2 mM in DMSO stock solution diluted 1:25 with medium) are added into 395 μl hepatocyte suspension (cell density in the range 0.25-5 Mio cells/mL, typically 1 Mio cells/mL; final concentration of test compound 1 μM, final DMSO concentration 0.05%).
# The cells are incubated for six hours (incubator, orbital shaker) and samples (2 μl) are taken at 0, 0.5, 1, 2, 4 and 6 hours. Samples are transferred into acetonitrile and pelleted by centrifugation (5 min). The supernatant is transferred to a new 96-deepwell plate, evaporated under nitrogen and resuspended.
# CLint is calculated as follows CL_[…]=Dose/AUC=(C0/CD)/(AUD+clast/k)×1000/60. C0: initial concentration in the incubation [μM], CD: cell density of vital cells [10e6cells/mL], AUD: area under the data [μM×h], clast: concentration of last data point [μM], k: slope of the regression line for parent decline [h−1].
# The calculated in vitro hepatic intrinsic clearance can be scaled up to the intrinsic in vivo hepatic Clearance and used to predict hepatic in vivo blood clearance (CL) by the use of a liver model (well stirred model).
# CL_[…]_INVIVO[ml/min/kg]=(CL_[…][μL/min/10e6cells]×hepatocellularity[10e6cells/g liver]×liver factor[g/kg bodyweight])/1000
# CL[ml/min/kg]=CL_[…]_INVIVO[ml/min/kg]×hepatic blood flow[ml/min/kg]/(CL_[…]_INVIVO[ml/min/kg]+hepatic blood flow[ml/min/kg])
# Hepatocellularity,mouse:120×10e6cells/g liver
# Liver factor,mouse:55 g/kg bodyweight
# Blood flow,mouse:90 ml/(min×kg)
# CACO-2 cells = assay: Assay C: Permeability in CACO-2 cells; format: in vitro ADME; conditions: pair comparison without/with 4-fluoropiperidyl
# Description: (§1) Caco-2 cells (1-2×10^5 cells/1 cm^2 area) are seeded on filter inserts (Costar transwell polycarbonate or PET filters, 0.4 μm pore size) and cultured (DMEM) for 10 to 25 days. Compounds are dissolved in appropriate solvent (like DMSO, 1-20 mM stock solutions). […] The transport solution (TL) is applied to the apical or basolateral donor side for measuring A-B or B-A permeability (3 filter replicates), respectively. Samples are collected at the start and end of experiment from the donor and at various time intervals for up to 2 hours also from the receiver side for concentration measurement by HPLC-MS/MS or scintillation counting. Sampled receiver volumes are replaced with fresh receiver solution.
# (§2) Efflux ratio (ER)=permeability B-A/permeability A-B
# isolated QPCTL = isolated QPCTL (Homo sapiens (Human), UniProt Q9NXS2); conditions: disclosed in WO 2023/205173 [00470]; read-out: inhibitory activity on isolated QPCTL IC50; cited from earlier work
# Sequence of isolated QPCTL (Q9NXS2 whole entry, species assumed): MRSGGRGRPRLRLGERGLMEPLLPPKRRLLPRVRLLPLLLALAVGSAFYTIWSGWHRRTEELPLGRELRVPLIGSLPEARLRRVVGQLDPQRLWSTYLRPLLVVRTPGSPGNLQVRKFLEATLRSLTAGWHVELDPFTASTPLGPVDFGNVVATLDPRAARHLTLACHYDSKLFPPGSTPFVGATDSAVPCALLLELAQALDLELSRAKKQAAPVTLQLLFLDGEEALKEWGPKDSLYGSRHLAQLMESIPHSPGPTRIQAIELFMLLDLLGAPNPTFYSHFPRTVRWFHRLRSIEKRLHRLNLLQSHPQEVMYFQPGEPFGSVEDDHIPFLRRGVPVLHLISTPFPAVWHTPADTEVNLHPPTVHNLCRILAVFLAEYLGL
# A549 cells = conditions: disclosed in WO 2023/205173 [00470]; read-out: cellular activity in A549 cells EC50; cited from earlier work
# QPCT = QPCT (Homo sapiens (Human), UniProt Q16769); assay: Assay A: biochemical QPCT activity assay (MALDI-TOF MS); conditions: read-out: Inhibition of QPCT: IC50
# Sequence of QPCT (Q16769 29-361): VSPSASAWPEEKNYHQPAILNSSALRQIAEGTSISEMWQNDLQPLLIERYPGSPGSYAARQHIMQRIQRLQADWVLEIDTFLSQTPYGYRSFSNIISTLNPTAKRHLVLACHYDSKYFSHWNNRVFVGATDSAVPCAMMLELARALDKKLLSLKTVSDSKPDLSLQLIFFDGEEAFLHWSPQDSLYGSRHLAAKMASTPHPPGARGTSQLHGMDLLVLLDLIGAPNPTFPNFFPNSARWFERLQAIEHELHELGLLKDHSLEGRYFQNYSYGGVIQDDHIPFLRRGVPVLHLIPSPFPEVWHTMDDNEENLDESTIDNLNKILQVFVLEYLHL
# Description: (§3) QPCT or QPCTL dependent conversion of N-terminal glutamine to pyroglutamate of CD47 was monitored via MALDI-TOF MS. Test compounds were dissolved in 100% DMSO and serially diluted into clear 1,536-well microtiter plates. Enzymatic reactions were set up in assay buffer containing 20 mM Tris pH 7.5, 0.1 mM TCEP, 0.01% BSA, and 0.001% Tween20. […] The plates were incubated for 10 min in a humidified incubator at 24° C. Subsequently, 2.5 μL of CD47 peptide substrate surrogate (^19[…]^33) was added to each well (final concentration: 10 μM for QPCTL/20 μM for QPCT). The plates were mixed for 30 sec at 1,000 rpm and subsequently incubated for 40 min in a humidified incubator at 24° C. […] The plates were sealed with an adhesive foil, mixed for 30 s at 1,000 rpm and stored at room temperature until preparation of the MALDI target plates. […] QPCT or QPCTL activity was monitored by calculating the ratio between product and internal standard signals followed by normalization to high (100% activity) and low (0% activity) controls. Determination of compound potencies was obtained by fitting the dose-response data to a four-parameter logistical equation.
# [2] = Assay C: Permeability in CACO-2 cells; format: in vitro ADME; conditions: human, Assay C
# Description: as §1, §2
# QPCTL = QPCTL (Homo sapiens (Human), UniProt Q9NXS2); assay: Assay A: biochemical QPCTL activity assay (MALDI-TOF MS); conditions: read-out: Inhibition of QPCTL: IC50
# Sequence of QPCTL (Q9NXS2 whole entry): as the sequence (Q9NXS2 whole entry, species assumed) above
# Description: as §3
# CYP3A4 mRNA = assay: Assay D: CYP induction screening assay in primary human hepatocytes; format: in vitro ADME; conditions: 48 h
# Description: Cryopreserved plateable human hepatocytes (single donor, BioIVT) were thawed and plated in Collagen-I coated 96-well-plates at a cell density of 0.07 million cells per well.
# After a 6 h attachment period, the seeding medium was replaced by serum-free William's medium E supplemented with Matrigel (0.25 mg/ml) and allowed to recover overnight. 24 h post-seeding, serum-free Williams E medium containing the test compound at a final concentration of 10 μM and a final DMSO content of 0.1% and 0.1% DMSO (solvents treated control), respectively, was added to predefined wells. Exposure solutions were renewed after 24 h.
# After 48 h of treatment in total, the effect of the test compounds on CYP3A4 mRNA expression was assessed using the QuantiGene Plex Gene Expression Assay. Hepatocytes were lysed and total RNA was extracted using the QuantiGene Sample Processing Kit according to the instructions of the manufacturer.
# mRNA quantification was conducted using a customized QuantiGene Plex Panel to analyse CYP3A4 and the housekeeper genes RPL32, EIF4E2 and GUSB according to the instructions of the manufacturer and measured on a Luminex™ instrument. Signal was reported as median fluorescence intensity (MFI), which is proportional to the number of target RNA molecules present in the sample.
# For calculation of CYP3A4 mRNA induction, the signal for CYP3A4 was normalized against the geometric mean of the signal obtained for the housekeeper genes for hepatocytes exposed to test compounds in relation to solvent-treated samples according to the following equation:
# n-fold induction=(MFI CYP3A4 (treated)/Xgeo MFI (RPL32,EIF4E2,GUSB))/(MFI CYP3A4 (solvent control)/Xgeo MFI (RPL32,EIF4E2,GUSB))
SMILES,IC50 (Ramos cells),IC50 [1],Mouse Hepatocyte Stability QH (murine hepatocytes),CACO2 Perm. (CACO-2 cells),IC50 (isolated QPCTL),EC50 (A549 cells),IC50 (QPCT),"efflux ratio ([2]; Caco-2, pH 7.2, permeability B-A/permeability A-B, read-out: Efflux Ratio)","Papp A→B ([2]; pH 7.2, CACO-2 cells)",IC50 (QPCTL),n-fold induction of CYP3A4 at 10 μM (CYP3A4 mRNA)
"Cn1cnnc1C1CCN(c2c(C#N)cccc2-c2ccc(F)nc2)CC1 [(1)/QP5020, reference compound]",< 100 nM,8 nM,82%,28.0 10^−6 cm/sec,–,–,–,–,–,–,–
"Cn1c(N)nnc1C1CCN(c2c(C#N)cccc2-c2ccc(F)nc2)CC1 [Compound 14, reference compound]",–,–,31%,–,< 1000 nM,< 1000 nM,< 1 nM,22.2,0.7 ×10⁻⁶ cm/s,1 nM,1.9 n-fold

# Reference: patent US20250250252A1, “PIPERIDINYLBENZONITRILE DERIVATIVES AS INHIBITORS OF GLUTAMINYL-PEPTIDE CYCLOTRANSFERASE AND GLUTAMINYL-PEPTIDE CYCLOTRANSFERASE LIKE PROTEIN” (Boehringer Ingelheim International GmbH, priority 2024, published 2025)
